We go through four compounds from patent US5554728A, “Lipid conjugates of therapeutic peptides and protease inhibitors” (priority 1991, dated 1996).

In this test the test system is HIV. It is filed as cell-based. The protocol: Assay For The Reduction of HIV Syncytia Formed In HT4-6C Cells
The syncytia reduction assay as described by Larder, B. et al., science 243:1731-1734(1989) was used to measure the antiviral effect of protease inhibitor. A Hela cell line, HT4-6C, expressing the human CD4 receptor on its surface was trypsinized with 0.25% trypsin for 5 min. Cells were centrifuged to remove the residual trypsin, and the cell pellet was resuspended in DMEM with 10% FCS. HeLa cells were plated in 96 well plate (1×10^5 cells/well) overnight. Cell cultures were infected with HIV (approx. 100 PFU/well) for one hour. The […] were then prepared in stock solutions, and were then two fold diluted in 2% DMEM with 0.5% methylcellulose. 100 μl of each diluted antiviral agent is added into each well of HIV infected cells. The treated cell cultures were incubated in 37° C. CO2 incubator for 24 hours. Plates of HIV-infected cell cultures were fixed with methanol and stained with 1% crystal violet for 10 min., the dye is rinsed off with tap water. Each plate is dried and syncytia were counted. The antiviral effect of protease inhibitor is calculated by 50% syncytia reduction.

Setting [1] is: antiviral effect calculated by 50% syncytia reduction, HIV-infected HT4-6C (HeLa, human CD4) cells, 24 hours incubation, read-out: IC50.

Each structure is given as a SMILES string. Where two headings read alike, the source gives them in different places. Non-standard residues stand in square brackets, D forms with d. Residues, ends and D or L forms follow the SMILES beside them. *: point of attachment. d1Nal = N[C@H](Cc1cccc2ccccc12)C(=O)O; d2Nal = N[C@H](Cc1ccc2ccccc2c1)C(=O)O; Isobutyloxycarbonyl = CC(C)COC(=O)*; Hica(2S) = CC(C)C[C@H](O)C(=O)O; Pip = O=C(O)[C@@H]1CCCCN1

In the case of `CC(C)C(NC(=O)OC(C)(C)C)C(=O)NC(Cc1ccccc1)C(=O)OCC(O)C(O)COC(=O)C(Cc1ccccc1)NC(=O)C(NC(=O)OC(C)(C)C)C(C)C` (stereo not drawn) [EXAMPLE 24, (Boc-Val-Phe-O--CH2 --CHOH)2], the IC50 (in general, the point on the concentration scale where inhibition reaches its midpoint) under setting [1] is 1 µM.
For the compound `CC(C)(C)OC(=O)NC(CO)C(=O)NC(Cc1ccccc1)C(=O)OCC(O)C(O)COC(=O)C(Cc1ccccc1)NC(=O)C(CO)NC(=O)OC(C)(C)C` (stereo not drawn) [EXAMPLE 25, (Boc-Ser-Phe-O--CH2 --CHOH)2], the IC50 under setting [1] was 3 µM.
Regarding `COC(=O)[C@@H]1CCCCN1C(=O)[C@@H](Cc1ccc2ccccc2c1)NC(=O)[C@H](C)NC(=O)[C@H](C)NC(C)=O` [EXAMPLE 27-30, Ac-Ala-Ala-(D-b-Nal)-Pip-OMe] (Ac-AA[d2Nal][Pip]-OMe), where the note is “24 h”, the IC50 is above 100 µM.
As to `CC(C)COC(=O)N[C@H](Cc1ccccc1)C(=O)N[C@H](Cc1cccc2ccccc12)C(=O)N1CCCC[C@H]1C(=O)O[C@@H](CC(C)C)C(=O)N[C@H](C(N)=O)C(C)C` [EXAMPLE 27-40, i-Boc-(D-Phe)-(D-a-Nal)-Pip-(a-(OH)-Leu)-Val-NH2] (Isobutyloxycarbonyl-[dF][d1Nal][Pip][Hica(2S)]V-NH2), the half-inhibitory concentration (IC50) (24 h) came to 10 µM.
